Tests used:
[1] = test system: senescent PSC27 cells; test: RNA-seq / GSEA expression profile of BLEO-induced senescent PSC27 cells; format: cell-based, human
Protocol: Whole-transcriptome sequencing was performed on the primary human prostate stromal cell line PSC27 under different treatment conditions. Total RNA samples were obtained from stromal cells. Their integrity was verified by Bioanalyzer 2100 (Agilent), RNA was sequenced by Illumina HiSeq X10, and gene expression levels were quantified by software package rsem (https://deweylab.github.io/rsem/). Briefly, rRNA was depleted from RNA samples with the RiboMinus Eukaryote Kit (Qiagen, Valencia, Calif., USA); and according to the manufacturer's instructions, TruSeq Stranded Total RNA Preparation Kits (Illumina, San Diego, Calif.), USA) was used to construct a strand-specific RNA-seq library before deep sequencing.
Paired-end transcriptomic reads were mapped to a reference genome (GRCh38/hg38), and reference-annotation was performed from Gencode v27 using the Bowtie tool. Duplicate reads were identified using the picard Tools (1.98) script to mark duplicates (https://github.com/broadinstitute/picard), and only non-duplicate reads were retained. Reference splice junctions were provided by reference transcriptome (Ensembl Build 73). FPKM values were calculated with Cufflinks, and Cufflinks maximum likelihood estimation function was used to call differential gene expression. Genes with significant changes in expression were defined by false discovery rate (FDR)-corrected P-values<0.05, and only Ensembl Genes 73 with status “Known” and biotype “coding” were used for downstream analysis.
Next, Trim Galore (v0.3.0) (http://www.bioinformatics.babraham.ac.uk/projects/trim_galore/) was used to trim the reads, while the quality assessment was carried out by using FastQC (v0.10.0) (http://www.bioinformatics.bb src.ac.uk/projects/fastqc/). Subsequently, a preliminary analysis of the raw data was perform on a free online platform, Majorbio I-Sanger Cloud Platform (www.i-sanger.com), by using DAVID bioinformatics platform (https://david.ncifcrf.gov/) and Ingenuity Pathways Analysis (IPA) program (http://www.ingenuity.com/index.html), the raw data were deposited in the NCBI Gene Expression Omnibus (GEO) database with access code GSE156448.
Based on the data obtained from the preliminary analysis of RNA-seq, analyzed and compared each differentially expressed significant gene, the genes were sorted using the “wald statistics” obtained from DESeq2, GSEA was performed on the sorting lists of all planning gene sets available in MSigDB (http://software.broadinstitute.org/gsea/msigdb). DESeq2 independent filtering was based on the average of normalized read counts to select genes with very low expression levels. The GSEA signature of SASP was as described in our previous publication (Zhang et al., 2018a).

[2] = test system: aged C57BL/6 mice; test: Post-mortem pathological examination of aged mice; format: in vivo; conditions: end of life
Protocol: The researchers checked the cages daily and removed dead mice from the cages. Within 24 hours of animal death, cadavers (abdominal cavity, thoracic cavity, and skull) were opened and kept separately in 10% formalin for at least 7 days. Decomposed or destroyed bodies were excluded. The preserved cadavers were transported to the dedicated autopsy site for pathological examination. Tumor burden (sum of different types of tumors per mouse), disease burden (sum of different histopathological changes in major organs per mouse), severity of each lesion and inflammation (lymphocyte infiltration) were assessed.

[3] = BLEO/PCC1 vs BLEO group, fold change 2.0, P<0.01

Oc1cc(O)c2c(c1)O[C@H](c1ccc(O)c(O)c1)[C@H](O)[C@H]2c1c(O)cc(O)c2c1O[C@H](c1ccc(O)c(O)c1)[C@H](O)[C@H]2c1c(O)cc(O)c2c1O[C@H](c1ccc(O)c(O)c1)[C@H](O)C2 [PCC1, procyanidin C1]
number of genes significantly down-regulated [1, 3]: 4406 genes | number of genes up-regulated [1, 3]: 2766 genes | expression of SASP factors in senescent cells after treatment ([1]; RNA-seq heatmap): generally decreased | GSEA molecular signatures of SASP expression or NF-κB activation ([1]; senescent cells after PCC1): significant repression | prevalence of several age-related diseases and tumor burden at autopsy vs vehicle [2]: did not show statistical differences

— patent publication US12721832B2, “Anti-senescence plant polyphenol drug downregulating senescence-related secretory phenotype and use thereof” (BYHEALTH CO., LTD., priority 2021, dated 2026)
